Reference: patent US8163728B2, “Pyrazoles” (Hoffmann-La Roche Inc., priority 2009, dated 2012)

Target: T1, GABA A α5 (Homo sapiens, UniProt P18507+P31644)
T1 construct: expressed in transfected cells; host or cells: HEK293 cells, transiently transfected; membranes prepared from cell pellets
Experiment: [3H]flumazenil competition binding, human GABA A α5β3γ2 receptors in HEK293 cell membranes
Conditions: human receptor α5β3γ2 transiently transfected in HEK293; 0.5 nM [3H]flumazenil; 1 hour at 4° C.; means of two determinations; read-out: hKi GABA A α5
Summary of the method: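 Competition with [3H]flumazenil for binding to membranes of HEK293 cells transiently expressing human α5β3γ2, in Krebs-tris buffer pH 7.5. Incubated to equilibrium 1 h at 4 °C, filtered and scintillation-counted; Ki values are means of two determinations.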

| SMILES | Ki |
| --- | --- |
| Cc1onc(-c2ccc(F)cn2)c1COc1cc(C(=O)NN(C)C)n(C)n1 [Example 82, 5-[3-(5-Fluoro-pyridin-2-yl)-5-methyl-isoxazol-4-ylmethoxy]-2-methyl-2H-pyrazole-3-carboxylic acid N′,N′-dimethyl-hydrazide] | 0.0295 µM |
| Cc1onc(-c2ccc(F)cn2)c1COc1cc(C(=O)NCCO)n(C)n1 [Example 83, 5-[3-(5-Fluoro-pyridin-2-yl)-5-methyl-isoxazol-4-ylmethoxy]-2-methyl-2H-pyrazole-3-carboxylic acid (2-hydroxy-ethyl)-amide] | 0.011 µM |
| Cc1onc(-c2ccc(F)cn2)c1COc1cc(C(=O)NC2CCOCC2)n(C)n1 [Example 84, 5-[3-(5-Fluoro-pyridin-2-yl)-5-methyl-isoxazol-4-ylmethoxy]-2-methyl-2H-pyrazole-3-carboxylic acid (tetrahydro-pyran-4-yl)-amide] | 0.0035 µM |
| CCCCc1noc(C)c1COc1cc(C(=O)NCCO)n(C)n1 [Example 85, 5-(3-Butyl-5-methyl-isoxazol-4-ylmethoxy)-2-methyl-2H-pyrazole-3-carboxylic acid (2-hydroxy-ethyl)-amide] | 0.0276 µM |
| CCCCc1noc(C)c1COc1cc(C(=O)NC(C)C)n(C)n1 [Example 86, 5-(3-Butyl-5-methyl-isoxazol-4-ylmethoxy)-2-methyl-2H-pyrazole-3-carboxylic acid isopropylamide] | 0.0392 µM |
| CCCCc1noc(C)c1COc1cc(C(=O)NC2CCOCC2)n(C)n1 [Example 88, 5-(3-Butyl-5-methyl-isoxazol-4-ylmethoxy)-2-methyl-2H-pyrazole-3-carboxylic acid (tetra-hydro-pyran-4-yl)-amide] | 0.0087 µM |
| Cc1onc(C2CCOCC2)c1COc1cc(C(=O)NC2CCOCC2)n(C)n1 [Example 90, 2-Methyl-5-[5-methyl-3-(tetrahydro-pyran-4-yl)-isoxazol-4-ylmethoxy]-2H-pyrazole-3-carboxylic acid (tetrahydro-pyran-4-yl)-amide] | 0.0244 µM |
| Cn1nc(OCc2c(-c3ccc(F)cc3)noc2CO)cc1C(=O)NC1CCOCC1 [Example 91, 5-[3-(4-Fluoro-phenyl)-5-hydroxymethyl-isoxazol-4-ylmethoxy]-2-methyl-2H-pyrazole-3-carboxylic acid (tetrahydro-pyran-4-yl)-amide] | 0.001 µM |
| CC(C)NC(=O)c1cc(OCc2c(-c3ccc(F)cc3)noc2CO)nn1C [Example 92, 5-[3-(4-Fluoro-phenyl)-5-hydroxymethyl-isoxazol-4-ylmethoxy]-2-methyl-2H-pyrazole-3-carboxylic acid isopropylamide] | 0.0095 µM |
| Cn1nc(OCc2c(-c3ccc(F)cc3)noc2CO)cc1C(N)=O [Example 93, 5-[3-(4-Fluoro-phenyl)-5-hydroxymethyl-isoxazol-4-ylmethoxy]-2-methyl-2H-pyrazole-3-carboxylic acid amide] | 0.0147 µM |
| Cn1nc(OCc2c(-c3ccc(F)cc3)noc2CO)cc1C(=O)NCC(F)(F)C(F)(F)F [Example 95, 5-[3-(4-Fluoro-phenyl)-5-hydroxymethyl-isoxazol-4-ylmethoxy]-2-methyl-2H-pyrazole-3-carboxylic acid (2,2,3,3,3-pentafluoro-propyl)-amide] | 0.008 µM |
| Cn1ccc(NC(=O)c2cc(OCc3c(-c4ccc(F)cc4)noc3CO)nn2C)n1 [Example 96, 5-[3-(4-Fluoro-phenyl)-5-hydroxymethyl-isoxazol-4-ylmethoxy]-2-methyl-2H-pyrazole-3-carboxylic acid (1-methyl-1H-pyrazol-3-yl)-amide] | 0.0427 µM |
| Cn1nc(OCc2c(-c3ccc(F)cc3)noc2CO)cc1C(=O)N1CC2(COC2)C1 [Example 99, {5-[3-(4-Fluoro-phenyl)-5-hydroxymethyl-isoxazol-4-ylmethoxy]-2-methyl-2H-pyrazol-3-yl}-(2-oxa-6-aza-spiro[3.3]hept-6-yl)-methanone] | 0.024 µM |
| CC(C)NC(=O)c1cc(OCc2c(-c3ccc(Cl)cc3)noc2CO)nn1C [Example 100, 5-[3-(4-Chloro-phenyl)-5-hydroxymethyl-isoxazol-4-ylmethoxy]-2-methyl-2H-pyrazole-3-carboxylic acid isopropylamide] | 0.0058 µM |
| Cn1nc(OCc2c(-c3ccc(Cl)cc3)noc2CO)cc1C(=O)NC1CCOCC1 [Example 101, 5-[3-(4-Chloro-phenyl)-5-hydroxymethyl-isoxazol-4-ylmethoxy]-2-methyl-2H-pyrazole-3-carboxylic acid (tetrahydro-pyran-4-yl)-amide] | 0.0009 µM |
| Cn1nc(OCc2c(-c3ccc(Cl)cc3)noc2CO)cc1C(N)=O [Example 102, 5-[3-(4-Chloro-phenyl)-5-hydroxymethyl-isoxazol-4-ylmethoxy]-2-methyl-2H-pyrazole-3-carboxylic acid amide] | 0.0126 µM |
| Cn1nc(OCc2c(-c3ccc(Cl)cc3)noc2CO)cc1C(=O)NCC(F)(F)F [Example 103, 5-[3-(4-Chloro-phenyl)-5-hydroxymethyl-isoxazol-4-ylmethoxy]-2-methyl-2H-pyrazole-3-carboxylic acid (2,2,2-trifluoro-ethyl)-amide] | 0.0057 µM |

| SMILES | Ki |
| --- | --- |
| Cn1nc(OCc2c(-c3ccc(Cl)cc3)noc2CO)cc1C(=O)NCC(F)(F)C(F)(F)F [Example 104, 5-[3-(4-Chloro-phenyl)-5-hydroxymethyl-isoxazol-4-ylmethoxy]-2-methyl-2H-pyrazole-3-carboxylic acid (2,2,3,3,3-pentafluoro-propyl)-amide] | 0.0066 µM |
| Cn1nc(OCc2c(-c3ccc(Cl)cc3)noc2CO)cc1C(=O)NC1CC1 [Example 105, 5-[3-(4-Chloro-phenyl)-5-hydroxymethyl-isoxazol-4-ylmethoxy]-2-methyl-2H-pyrazole-3-carboxylic acid cyclopropylamide] | 0.0054 µM |
| Cn1nc(OCc2c(-c3ccc(Cl)cc3)noc2CO)cc1C(=O)NC(C)(C)CO [Example 107, 5-[3-(4-Chloro-phenyl)-5-hydroxymethyl-isoxazol-4-ylmethoxy]-2-methyl-2H-pyrazole-3-carboxylic acid (2-hydroxy-1,1-dimethyl-ethyl)-amide] | 0.0178 µM |
| Cn1nc(OCc2c(-c3ccc(Cl)cc3)noc2CO)cc1C(=O)NC1(C)COC1 [Example 108, 5-[3-(4-Chloro-phenyl)-5-hydroxymethyl-isoxazol-4-ylmethoxy]-2-methyl-2H-pyrazole-3-carboxylic acid (3-methyl-oxetan-3-yl)-amide] | 0.0031 µM |
| Cn1nc(OCc2c(-c3ccc(Cl)cc3)noc2CO)cc1C(=O)N1CC2(COC2)C1 [Example 109, {5-[3-(4-Chloro-phenyl)-5-hydroxymethyl-isoxazol-4-ylmethoxy]-2-methyl-2H-pyrazol-3-yl}-(2-oxa-6-aza-spiro[3.3]hept-6-yl)-methanone] | 0.009 µM |
| Cn1nc(OCc2c(-c3ccc(Cl)cc3)noc2CO)cc1C(=O)N1CCC(F)(F)CC1 [Example 111, {5-[3-(4-Chloro-phenyl)-5-hydroxymethyl-isoxazol-4-ylmethoxy]-2-methyl-2H-pyrazol-3-yl}-(4,4-difluoro-piperidin-1-yl)-methanone] | 0.0525 µM |
| CCCCc1noc(CO)c1COc1cc(C(=O)NCC(F)(F)F)n(C)n1 [Example 112, 5-(3-Butyl-5-hydroxymethyl-isoxazol-4-ylmethoxy)-2-methyl-2H-pyrazole-3-carboxylic acid (2,2,2-trifluoro-ethyl)-amide] | 0.0451 µM |
| CCCCc1noc(CO)c1COc1cc(C(=O)NC2CCC2)n(C)n1 [Example 113, 5-(3-Butyl-5-hydroxymethyl-isoxazol-4-ylmethoxy)-2-methyl-2H-pyrazole-3-carboxylic acid cyclobutylamide] | 0.0396 µM |
| Cc1onc(-c2ccccn2)c1COc1cc(C(=O)NC(C)C)nn1C [Example 115, 1-Methyl-5-(5-methyl-3-pyridin-2-yl-isoxazol-4-ylmethoxy)-1H-pyrazole-3-carboxylic acid isopropylamide] | 0.0205 µM |
| Cc1onc(-c2ccccn2)c1COc1cc(C(=O)NC2CCOCC2)nn1C [Example 116, 1-Methyl-5-(5-methyl-3-pyridin-2-yl-isoxazol-4-ylmethoxy)-1H-pyrazole-3-carboxylic acid (tetrahydro-pyran-4-yl)-amide] | 0.0182 µM |
| Cc1onc(-c2ccc(F)cn2)c1COc1cc(C(=O)N[C@@H](C)CO)nn1C [Example 117, 5-[3-(5-Fluoro-pyridin-2-yl)-5-methyl-isoxazol-4-ylmethoxy]-1-methyl-1H-pyrazole-3-carboxylic acid ((S)-2-hydroxy-1-methyl-ethyl)-amide] | 0.0068 µM |
| Cc1onc(-c2ccccc2)c1/C=C/c1cc(C(=O)NC(C)C)[nH]n1 [Example 118, 5-[(E)-2-(5-Methyl-3-phenyl-isoxazol-4-yl)-vinyl]-2H-pyrazole-3-carboxylic acid iso-propylamide] | 0.0051 µM |
| Cc1onc(-c2ccccc2)c1/C=C\c1cc(C(=O)NC(C)C)[nH]n1 [Example 119, 5-[(Z)-2-(5-Methyl-3-phenyl-isoxazol-4-yl)-vinyl]-2H-pyrazole-3-carboxylic acid iso-propylamide] | 0.0202 µM |
| Cc1onc(-c2ccc(F)cc2)c1/C=C\c1cc(C(=O)NC(C)C)n(C)n1 [Example 120, 5-{(Z)-2-[3-(4-Fluoro-phenyl)-5-methyl-isoxazol-4-yl]-vinyl}-2-methyl-2H-pyrazole-3-carboxylic acid isopropylamide] | 0.028 µM |
| Cc1onc(-c2ccc(F)cc2)c1/C=C\c1cc(C(=O)NC(C)CO)n(C)n1 (stereo not drawn) [Example 121, 5-{(Z)-2-[3-(4-Fluoro-phenyl)-5-methyl-isoxazol-4-yl]vinyl}-2-methyl-2H-pyrazole-3-carboxylic acid (2-hydroxy-1-methyl-ethyl)-amide] | 0.0496 µM |
| Cc1onc(-c2ccc(F)cc2)c1/C=C/c1cc(C(=O)NC(C)C)n(C)n1 [Example 122, 5-{(E)-2-[3-(4-Fluoro-phenyl)-5-methyl-isoxazol-4-yl]vinyl}-2-methyl-2H-pyrazole-3-carboxylic acid isopropylamide] | 0.0016 µM |
